This experiment has as its target T1, MAT2A (Homo sapiens, UniProt P31153).
T1 construct: His6; made in house; host or cells: SF9 insect cells
The experiment can be described thus: MAT2A biochemical assay (colorimetric inorganic phosphate detection, PiColorLock). The following applies: recombinant His6-tagged MAT2A 1 μg/ml; 60 minutes preincubation at 25° C.; L-Met 80 μM, ATP 100 μM; 60 minutes reaction; read at 623 nm; read-out: MAT2A Inhibition Score. In short, it runs like this: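 His6-tagged human MAT2A (SF9-expressed, 1 μg/ml) converting L-Met and ATP to SAM in Tris pH 8.0, 50 mM KCl, 15 mM MgCl2, 300 uM EDTA, 0.005% BSA; 60 min at room temperature. Released phosphate detected colorimetrically with malachite green phosphomolybdate. Ten-point, three-fold compound dilution series.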
T1 sequence (P31153 whole entry): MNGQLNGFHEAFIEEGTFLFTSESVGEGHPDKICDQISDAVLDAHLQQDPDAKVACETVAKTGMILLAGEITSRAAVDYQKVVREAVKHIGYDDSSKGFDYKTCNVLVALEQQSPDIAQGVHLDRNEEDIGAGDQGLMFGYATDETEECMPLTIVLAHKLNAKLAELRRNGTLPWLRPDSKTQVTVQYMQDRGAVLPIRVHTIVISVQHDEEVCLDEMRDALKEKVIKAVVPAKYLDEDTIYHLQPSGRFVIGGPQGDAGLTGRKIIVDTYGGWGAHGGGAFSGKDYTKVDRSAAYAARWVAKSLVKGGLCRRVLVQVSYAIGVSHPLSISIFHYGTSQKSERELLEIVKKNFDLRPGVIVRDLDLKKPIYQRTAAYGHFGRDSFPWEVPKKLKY
Take `O=c1c(-c2ccc3ncccc3c2)c(CO)[nH]c2c(-c3ccccc3)c(-c3ccccc3)nn12` [Compound 319, 5-(hydroxymethyl)-2,3-diphenyl-6-(quinolin-6-yl)pyrazolo[1,5-a]pyrimidin-7(4H)-one]: the IC50 fell in the range of 100 to 1000 nM.

As to `O=c1c(-c2ccc3ncccc3c2)c(Cn2cccn2)[nH]c2c(-c3ccccc3)c(-c3ccccc3)nn12` [Compound 320, 5-((1H-pyrazol-1-yl)methyl)-2,3-diphenyl-6-(quinolin-6-yl)pyrazolo[1,5-a]pyrimidin-7(4H)-one], the IC50 was in the range of 100 to 1000 nM.

On to `O=c1c(-c2ccc3ncccc3c2)c(Cc2ncn[nH]2)[nH]c2c(-c3ccccc3)c(-c3ccccc3)nn12` [Compound 321, 5-((1H-1,2,4-triazol-5-yl)methyl)-2,3-diphenyl-6-(quinolin-6-yl)pyrazolo[1,5-a]pyrimidin-7(4H)-one], for which the IC50 was 100 to 1000 nM.

`O=C1CNC(=O)N1Cc1[nH]c2c(-c3ccccc3)c(-c3ccccc3)nn2c(=O)c1-c1ccc2ncccc2c1` [Compound 322, 3-((7-oxo-2,3-diphenyl-6-(quinolin-6-yl)-4,7-dihydropyrazolo[1,5-a]pyrimidin-5-yl)methyl)imidazolidine-2,4-dione]: the IC50 fell in the range of 1000 to 10000 nM.

For the molecule `O=C1CN(Cc2[nH]c3c(-c4ccccc4)c(-c4ccccc4)nn3c(=O)c2-c2ccc3ncccc3c2)C(=O)N1` [Compound 323, 1-((7-oxo-2,3-diphenyl-6-(quinolin-6-yl)-4,7-dihydropyrazolo[1,5-a]pyrimidin-5-yl)methyl)imidazolidine-2,4-dione], the IC50 was 100 to 1000 nM.

For `O=C1NCCN1Cc1[nH]c2c(-c3ccccc3)c(-c3ccccc3)nn2c(=O)c1-c1ccc2ncccc2c1` [Compound 324, 5-((2-oxoimidazolidin-1-yl)methyl)-2,3-diphenyl-6-(quinolin-6-yl)pyrazolo[1,5-a]pyrimidin-7(4H)-one], the IC50 fell in the range of 1000 to 10000 nM.

Turning to `CNC(=O)c1[nH]c2c(-c3ccccc3)c(-c3ccccc3)nn2c(=O)c1-c1ccc2ncccc2c1` [Compound 325], the IC50 fell in the range of 100 to 1000 nM.

On to `O=C(Nc1[nH]c2c(-c3ccccc3)c(-c3ccccc3)nn2c(=O)c1-c1ccc2ncccc2c1)C1CC1` [Compound 326, N-(7-oxo-2,3-diphenyl-6-(quinolin-6-yl)-4,7-dihydropyrazolo[1,5-a]pyrimidin-5-yl)cyclopropanecarboxamide], for which the IC50 was 1000 to 10000 nM.

Turning to `CCC(=O)Nc1[nH]c2c(-c3ccccc3)c(-c3ccccc3)nn2c(=O)c1-c1ccc2ncccc2c1` [Compound 327, N-(7-oxo-2,3-diphenyl-6-(quinolin-6-yl)-4,7-dihydropyrazolo[1,5-a]pyrimidin-5-yl)propionamide], the IC50 was in the range of 100 to 1000 nM.

As for `O=C(NCc1cc[nH]n1)c1[nH]c2c(-c3ccccc3)c(-c3ccccc3)nn2c(=O)c1-c1ccc2ncccc2c1` [Compound 328, N-((1H-pyrazol-3-yl)methyl)-7-oxo-2,3-diphenyl-6-(quinolin-6-yl)-4,7-dihydropyrazolo[1,5-a]pyrimidine-5-carboxamide], the IC50 is 1000 to 10000 nM.

As to `O=C(NCCO)c1[nH]c2c(-c3ccccc3)c(-c3ccccc3)nn2c(=O)c1-c1ccc2ncccc2c1` [Compound 329, N-(2-hydroxyethyl)-7-oxo-2,3-diphenyl-6-(quinolin-6-yl)-4,7-dihydropyrazolo[1,5-a]pyrimidine-5-carboxamide], the IC50 fell in the range of 100 to 1000 nM.

On to `Cc1[nH]c2c(-c3ccccc3)c(-c3ccccc3)nn2c(=O)c1-c1ccc2ncnc(N)c2c1` [Compound 330, 6-(4-aminoquinazolin-6-yl)-5-methyl-2,3-diphenylpyrazolo[1,5-a]pyrimidin-7(4H)-one], for which the IC50 fell in the range of 100 to 1000 nM.

For the molecule `Cc1[nH]c2c(-c3ccccc3)c(-c3ccccc3)nn2c(=O)c1-c1ccc2nccnc2c1` [Compound 331, 5-methyl-2,3-diphenyl-6-(quinoxalin-6-yl)pyrazolo[1,5-a]pyrimidin-7(4H)-one], the IC50 fell in the range of 100 to 1000 nM.

Take `COc1ccc(-c2c(C)[nH]c3c(-c4ccccc4)c(-c4ccccc4)nn3c2=O)cn1` [Compound 333, 6-(6-methoxypyridin-3-yl)-5-methyl-2,3-diphenylpyrazolo[1,5-a]pyrimidin-7(4H)-one]: the IC50 lay within 100 to 1000 nM.

`Cc1[nH]c2c(-c3ccccc3)c(-c3ccccc3)nn2c(=O)c1-c1ccc2occc2c1` [Compound 334, 6-(benzofuran-5-yl)-5-methyl-2,3-diphenylpyrazolo[1,5-a]pyrimidin-7(4H)-one]: the IC50 was in the range of 100 to 1000 nM.

Regarding `Cc1[nH]c2c(-c3ccccc3)c(-c3ccccc3)nn2c(=O)c1-c1ccc2nnccc2c1` [Compound 335, 6-(cinnolin-6-yl)-5-methyl-2,3-diphenylpyrazolo[1,5-a]pyrimidin-7(4H)-one], the IC50 was 100 to 1000 nM.

Regarding `Cc1[nH]c2c(-c3ccccc3)c(-c3ccccc3)nn2c(=O)c1C1=CCC(=O)CC1` [Compound 336, 5-methyl-6-(4-oxocyclohex-1-en-1-yl)-2,3-diphenylpyrazolo[1,5-a]pyrimidin-7(4H)-one], the IC50 was in the range of 100 to 1000 nM.

On to `Cc1[nH]c2c(-c3ccccc3)c(-c3ccccc3)nn2c(=O)c1C1=CCC(O)CC1` (stereo not drawn) [Compound 337, 6-(4-hydroxycyclohex-1-en-1-yl)-5-methyl-2,3-diphenylpyrazolo[1,5-a]pyrimidin-7(4H)-one], for which the IC50 lay in the range of 100 to 1000 nM.

With `COc1ccc(-c2c(Cn3cnnn3)[nH]c3c(-c4ccccc4)c(-c4ccccc4)nn3c2=O)cc1` [Compound 338, 5-((1H-tetrazol-1-yl)methyl)-6-(4-methoxyphenyl)-2,3-diphenylpyrazolo[1,5-a]pyrimidin-7(4H)-one], the IC50 was in the range of 100 to 1000 nM.

With `COc1ccc(-c2c(Cn3ncnn3)[nH]c3c(-c4ccccc4)c(-c4ccccc4)nn3c2=O)cc1` [Compound 339, 5-((2H-tetrazol-2-yl)methyl)-6-(4-methoxyphenyl)-2,3-diphenylpyrazolo[1,5-a]pyrimidin-7(4H)-one], the IC50 is 100 to 1000 nM.

`COc1ccc(-c2c(CNC(=O)[C@@H](N)C(C)C)[nH]c3c(-c4ccccc4)c(-c4ccccc4)nn3c2=O)cc1` [Compound 340, (S)-2-amino-N-((6-(4-methoxyphenyl)-7-oxo-2,3-diphenyl-4,7-dihydropyrazolo[1,5-a]pyrimidin-5-yl)methyl)-3-methylbutanamide]: the IC50 was in the range of 100 to 1000 nM.

Take `Cc1[nH]c2c(-c3ccccc3)c(-c3cccc(Cl)c3)nn2c(=O)c1-c1ccc2ncccc2c1` [Compound 346, 2-(3-chlorophenyl)-5-methyl-3-phenyl-6-(quinolin-6-yl)pyrazolo[1,5-a]pyrimidin-7(4H)-one]: the IC50 fell in the range of 1000 to 10000 nM.

As for `Cc1[nH]c2c(-c3ccccc3)c(-c3ccc(Cl)cc3)nn2c(=O)c1-c1ccc2ncccc2c1` [Compound 347, 2-(4-chlorophenyl)-5-methyl-3-phenyl-6-(quinolin-6-yl)pyrazolo[1,5-a]pyrimidin-7(4H)-one], the IC50 fell in the range of 1000 to 10000 nM.

As for `Cc1[nH]c2c(-c3ccccc3)c(-c3ccncc3)nn2c(=O)c1-c1ccc2ncccc2c1` [Compound 348, 5-methyl-3-phenyl-2-(pyridin-4-yl)-6-(quinolin-6-yl)pyrazolo[1,5-a]pyrimidin-7(4H)-one], the IC50 lay in the range of 1000 to 10000 nM.

As for `COc1ccc(-c2nn3c(=O)c(-c4ccc5ncccc5c4)c(C)[nH]c3c2-c2ccccc2)cn1` [Compound 349, 2-(6-methoxypyridin-3-yl)-5-methyl-3-phenyl-6-(quinolin-6-yl)pyrazolo[1,5-a]pyrimidin-7(4H)-one], the IC50 was 1000 to 10000 nM.

For the molecule `Cc1[nH]c2c(-c3ccccc3)c(-c3ccnc(Cl)c3)nn2c(=O)c1-c1ccc2ncccc2c1` [Compound 350, 2-(2-chloropyridin-4-yl)-5-methyl-3-phenyl-6-(quinolin-6-yl)pyrazolo[1,5-a]pyrimidin-7(4H)-one], the IC50 was 1000 to 10000 nM.

On to `COc1cc(-c2nn3c(=O)c(-c4ccc5ncccc5c4)c(C)[nH]c3c2-c2ccccc2)ccn1` [Compound 351, 2-(2-methoxypyridin-4-yl)-5-methyl-3-phenyl-6-(quinolin-6-yl)pyrazolo[1,5-a]pyrimidin-7(4H)-one], for which the IC50 lay in the range of 1000 to 10000 nM.

Consider `O=c1c(-c2ccc3ncccc3c2)cn(CCn2cnnn2)c2c(-c3ccccc3)c(-c3ccccc3)nn12` [Compound 352, 4-(2-(1H-tetrazol-1-yl)ethyl)-2,3-diphenyl-6-(quinolin-6-yl)pyrazolo[1,5-a]pyrimidin-7(4H)-one], for which the IC50 lay in the range of 1000 to 10000 nM.

As to `NCCn1cc(-c2ccc3ncccc3c2)c(=O)n2nc(-c3ccccc3)c(-c3ccccc3)c12` [Compound 353, 4-(2-aminoethyl)-2,3-diphenyl-6-(quinolin-6-yl)pyrazolo[1,5-a]pyrimidin-7(4H)-one], the IC50 fell in the range of 1000 to 10000 nM.

As for `COc1ccc(-c2c(Oc3cccnn3)[nH]c3c(-c4ccccc4)c(-c4ccccc4)nn3c2=O)cc1` [Compound 354, 6-(4-methoxyphenyl)-2,3-diphenyl-5-(pyridazin-3-yloxy)pyrazolo[1,5-a]pyrimidin-7(4H)-one], the IC50 is 1000 to 10000 nM.

With `COc1ccc(-c2c(Oc3ccccc3)[nH]c3c(-c4ccccc4)c(-c4ccccc4)nn3c2=O)cc1` [Compound 355, 6-(4-methoxyphenyl)-5-phenoxy-2,3-diphenylpyrazolo[1,5-a]pyrimidin-7(4H)-one], the IC50 lay in the range of 1000 to 10000 nM.

As for `COc1ccc(-c2c(Nc3ccccc3)[nH]c3c(-c4ccccc4)c(-c4ccccc4)nn3c2=O)cc1` [Compound 356, 6-(4-methoxyphenyl)-2,3-diphenyl-5-(phenylamino)pyrazolo[1,5-a]pyrimidin-7(4H)-one], the IC50 was 100 to 1000 nM.

With `COc1ccc(-c2c(C)[nH]c3c(N4CCCCC4)c(-c4ccccc4)nn3c2=O)cn1` [Compound 358, 6-(6-methoxypyridin-3-yl)-5-methyl-2-phenyl-3-(piperidin-1-yl)pyrazolo[1,5-a]pyrimidin-7(4H)-one], the IC50 was under 100 nM.

For the origin of these results see patent US10800782B2, “Inhibitors of cellular metabolic processes” (Agios Pharmaceuticals, Inc., priority 2016, dated 2020).
